From patent US20260337245A1, “POLYPEPTIDE OR ANALOG THEREOF AND USE THEREOF” (Shenzhen Bay Laboratory, priority 2024, published 2026)
Starred links: 1 amine or outer side, 2 acyl side, 3 side chain; linkers in the order of their positions; H or OH if unused. Positions of bridges follow the written chain, without caps; N, C: chain ends. Non-standard residues stand in square brackets, D forms with d. Residues, ends and D or L forms follow the SMILES beside them. X1 = O=C(O)CCCCCCCCCCCCCCCCCCC(=O)N[C@@H](CCCCNC(=O)COCCOCCNC(=O)COCCOCCNC(=O)CCC(=O)N(CCNC(=O)C[*:1])CCNC(=O)C[*:2])C(=O)O; Aib = CC(C)(N)C(=O)O

Assays:
AMY3R = target: T1, AMY3R (Homo sapiens, UniProt P30988); experiment: HTRF cAMP assay, AMY3R; assay type: cell-based; details: HEK293/pGM-CREB-L-Luc/AMY3R pool, read-out: IC50 of receptor AMY3R
T1 construct: expressed in transfected cells
T1 sequence (P30988 25-474): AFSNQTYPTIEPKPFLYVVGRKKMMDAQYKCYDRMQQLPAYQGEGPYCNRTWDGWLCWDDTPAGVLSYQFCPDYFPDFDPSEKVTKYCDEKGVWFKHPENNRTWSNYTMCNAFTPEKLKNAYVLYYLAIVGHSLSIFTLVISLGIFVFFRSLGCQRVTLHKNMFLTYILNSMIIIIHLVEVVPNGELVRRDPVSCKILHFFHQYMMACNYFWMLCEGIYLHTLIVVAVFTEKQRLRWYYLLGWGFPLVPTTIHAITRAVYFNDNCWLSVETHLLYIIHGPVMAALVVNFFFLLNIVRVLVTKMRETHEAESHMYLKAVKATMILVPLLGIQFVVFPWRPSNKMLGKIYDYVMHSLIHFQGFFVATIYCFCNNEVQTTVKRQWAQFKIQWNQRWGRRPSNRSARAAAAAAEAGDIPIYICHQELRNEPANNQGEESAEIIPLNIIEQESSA
T1 sequence (O60896 24-148 partner): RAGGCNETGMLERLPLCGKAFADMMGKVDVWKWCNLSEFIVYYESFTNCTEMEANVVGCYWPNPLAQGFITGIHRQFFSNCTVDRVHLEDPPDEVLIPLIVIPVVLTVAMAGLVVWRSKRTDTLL
From the text: (§1) 2. The polypeptide derivatives prepared in Example 1 and Example 2 of the present disclosure can bind to the target AMYR and CTR receptors on the cell membrane, activate the receptors and release cAMP. Therefore, the activity of the analyte can be determined by using an HTRF (homogeneous time-resolved fluorescence) method and using a cAMP detection kit. The specific steps were as follows:
(§2) A stable transfected cell line of HEK293/pGM-CREB-L-Luc/AMY3R pool and HEK293/pGM-CREB-L-Luc/CTR pool was constructed. The polypeptide derivatives (i.e., AMY-001 to AMY-041) prepared in Examples 1 and 2 were subjected to 5-fold serial dilution from a maximum of 1000 nM to prepare a dilution series containing 8 to 11 concentration gradients. Cagrilintide and sCT were selected as positive controls for testing, and a dilution series was prepared according to the same method for testing. The test cell lines were selected and treated with cAMP-specific trypsin for digestion, and then suspended with 3 mL of serum-free DMEM medium by pipetting, and the cells were counted. 5 μL of IBMX (prepared with serum-free DMEM medium, 0.5 mM) and test cells (5 μL/7500 cells/well) were sequentially added to a 384-well plate, incubated under the conditions of 37° C., 5% CO2 for 30 minutes, then added with cAMP-d2 (5 μL, 1×) and Anti-cAMP-Cryptate (5 μL, 1×) and placed at room temperature for 1 hour. A HTRF value was determined by a chemiluminescence microplate reader, and the results were recorded. An activation curve was plotted using GraphPad Prism software to calculate an IC50 value of each polypeptide derivative. […] The IC50 values of some polypeptides were exemplarily shown in this example, see Table 3, FIG. 2 and FIG. 3 for details.

CTR = target: T2, CTR (Homo sapiens, UniProt P30988); experiment: HTRF cAMP assay, CTR; assay type: cell-based; details: HEK293/pGM-CREB-L-Luc/CTR pool, read-out: IC50 of receptor CTR
T2 construct: expressed in transfected cells
T2 sequence (P30988 25-474): T1 sequence (P30988 25-474)
From the text: as §1, §2

Structure (SMILES)	EC50 (AMY3R) [nM]	EC50 (CTR) [nM]
CC(=O)N[C@@H](C)C(=O)N[C@@H](CO)C(=O)N[C@@H](Cc1c[nH]cn1)C(=O)N[C@@H](CC(C)C)C(=O)N[C@@H](CO)C(=O)N[C@H](C(=O)N[C@H]1CSCC(=O)NCCN(C(=O)CCC(=O)NCCOCCOCC(=O)NCCOCCOCC(=O)NCCCC[C@H](NC(=O)CCCCCCCCCCCCCCCCCCC(=O)O)C(=O)O)CCNC(=O)CSC[C@@H](C(=O)N[C@@H](CCC(=O)O)C(=O)N[C@@H](CC(C)C)C(=O)N[C@@H](Cc2c[nH]cn2)C(=O)N[C@@H](CCCCN)C(=O)N[C@@H](CC(C)C)C(=O)NC(C)(C)C(=O)N[C@@H](CC(=O)O)C(=O)N[C@@H](Cc2ccc(O)cc2)C(=O)N2CCC[C@H]2C(=O)N[C@@H](CCCNC(=N)N)C(=O)N[C@H](C(=O)N[C@@H](CC(=O)O)C(=O)N[C@H](C(=O)NCC(=O)N[C@@H](C)C(=O)NCC(=O)N[C@@H](CO)C(=O)N2CCC[C@H]2C(N)=O)C(C)C)[C@@H](C)O)NC(=O)[C@H](CO)NC(=O)[C@H](CC(C)C)NC(=O)[C@H](CCCNC(=N)N)NC(=O)CNC(=O)[C@H](CC(C)C)NC(=O)[C@H](C(C)C)NC1=O)[C@@H](C)O [AMY-002, Ac ASHLSTCVLGRLSCELHKL-Aib-DYPRTDVGAGSP-NH2] (Ac-ASHLSTCVLGRLSCELHKL[Aib]DYPRTDVGAGSP-NH2; linker 7-14 via X1)	0.0671	0.0906
CC(=O)N[C@@H](C)C(=O)N[C@@H](CO)C(=O)N[C@@H](Cc1c[nH]cn1)C(=O)N[C@@H](CC(C)C)C(=O)N[C@@H](CO)C(=O)N[C@H](C(=O)N[C@@H](C)C(=O)N[C@H](C(=O)N[C@@H](CC(C)C)C(=O)N[C@H]1CSCC(=O)NCCN(C(=O)CCC(=O)NCCOCCOCC(=O)NCCOCCOCC(=O)NCCCC[C@H](NC(=O)CCCCCCCCCCCCCCCCCCC(=O)O)C(=O)O)CCNC(=O)CSC[C@@H](C(=O)N[C@@H](CCCCN)C(=O)N[C@@H](CC(C)C)C(=O)NC(C)(C)C(=O)N[C@@H](CC(=O)O)C(=O)N[C@@H](Cc2ccc(O)cc2)C(=O)N2CCC[C@H]2C(=O)N[C@@H](CCCNC(=N)N)C(=O)N[C@H](C(=O)N[C@@H](CC(=O)O)C(=O)N[C@H](C(=O)NCC(=O)N[C@@H](C)C(=O)NCC(=O)N[C@@H](CO)C(=O)N2CCC[C@H]2C(N)=O)C(C)C)[C@@H](C)O)NC(=O)[C@H](CC(C)C)NC(=O)[C@H](CCC(=O)O)NC(=O)[C@H](C)NC(=O)[C@H](CO)NC(=O)[C@H](CC(C)C)NC(=O)[C@H](CCCNC(=N)N)NC1=O)C(C)C)[C@@H](C)O [AMY-005, Ac-ASHLSTAVLCRLSAELCKL-Aib-DYPRTDVGAGSP-NH2] (Ac-ASHLSTAVLCRLSAELCKL[Aib]DYPRTDVGAGSP-NH2; linker 10-17 via X1)	0.198	0.303
CC(=O)N[C@@H](C)C(=O)N[C@@H](CO)C(=O)N[C@@H](Cc1c[nH]cn1)C(=O)N[C@@H](CC(C)C)C(=O)N[C@@H](CO)C(=O)N[C@H](C(=O)N[C@@H](C)C(=O)N[C@H](C(=O)N[C@@H](CC(C)C)C(=O)NCC(=O)N[C@H]1CSCC(=O)NCCN(C(=O)CCC(=O)NCCOCCOCC(=O)NCCOCCOCC(=O)NCCCC[C@H](NC(=O)CCCCCCCCCCCCCCCCCCC(=O)O)C(=O)O)CCNC(=O)CSC[C@@H](C(=O)N[C@@H](CC(C)C)C(=O)NC(C)(C)C(=O)N[C@@H](CC(=O)O)C(=O)N[C@@H](Cc2ccc(O)cc2)C(=O)N2CCC[C@H]2C(=O)N[C@@H](CCCNC(=N)N)C(=O)N[C@H](C(=O)N[C@@H](CC(=O)O)C(=O)N[C@H](C(=O)NCC(=O)N[C@@H](C)C(=O)NCC(=O)N[C@@H](CO)C(=O)N2CCC[C@H]2C(N)=O)C(C)C)[C@@H](C)O)NC(=O)[C@H](Cc2c[nH]cn2)NC(=O)[C@H](CC(C)C)NC(=O)[C@H](CCC(=O)O)NC(=O)[C@H](C)NC(=O)[C@H](CO)NC(=O)[C@H](CC(C)C)NC1=O)C(C)C)[C@@H](C)O [AMY-006, Ac-ASHLSTAVLGCLSAELHCL-Aib-DYPRTDVGAGSP-NH2] (Ac-ASHLSTAVLGCLSAELHCL[Aib]DYPRTDVGAGSP-NH2; linker 11-18 via X1)	0.0254	0.0107
CC(=O)N[C@@H](C)C(=O)N[C@@H](CO)C(=O)N[C@@H](Cc1c[nH]cn1)C(=O)N[C@@H](CC(C)C)C(=O)N[C@@H](CO)C(=O)N[C@H](C(=O)N[C@@H](C)C(=O)N[C@H](C(=O)N[C@@H](CC(C)C)C(=O)NCC(=O)N[C@@H](CCCNC(=N)N)C(=O)N[C@H]1CSCC(=O)NCCN(C(=O)CCC(=O)NCCOCCOCC(=O)NCCOCCOCC(=O)NCCCC[C@H](NC(=O)CCCCCCCCCCCCCCCCCCC(=O)O)C(=O)O)CCNC(=O)CSC[C@@H](C(=O)NC(C)(C)C(=O)N[C@@H](CC(=O)O)C(=O)N[C@@H](Cc2ccc(O)cc2)C(=O)N2CCC[C@H]2C(=O)N[C@@H](CCCNC(=N)N)C(=O)N[C@H](C(=O)N[C@@H](CC(=O)O)C(=O)N[C@H](C(=O)NCC(=O)N[C@@H](C)C(=O)NCC(=O)N[C@@H](CO)C(=O)N2CCC[C@H]2C(N)=O)C(C)C)[C@@H](C)O)NC(=O)[C@H](CCCCN)NC(=O)[C@H](Cc2c[nH]cn2)NC(=O)[C@H](CC(C)C)NC(=O)[C@H](CCC(=O)O)NC(=O)[C@H](C)NC(=O)[C@H](CO)NC1=O)C(C)C)[C@@H](C)O [AMY-007, Ac-ASHLSTAVLGRCSAELHKC-Aib-DYPRTDVGAGSP-NH2] (Ac-ASHLSTAVLGRCSAELHKC[Aib]DYPRTDVGAGSP-NH2; linker 12-19 via X1)	0.349	0.262
CC(=O)N[C@@H](C)C(=O)N[C@@H](CO)C(=O)N[C@@H](Cc1c[nH]cn1)C(=O)N[C@@H](CC(C)C)C(=O)N[C@@H](CO)C(=O)N[C@H](C(=O)N[C@@H](C)C(=O)N[C@H](C(=O)N[C@@H](CC(C)C)C(=O)NCC(=O)N[C@@H](CCCNC(=N)N)C(=O)N[C@@H](CC(C)C)C(=O)N[C@H]1CSCC(=O)NCCN(C(=O)CCC(=O)NCCOCCOCC(=O)NCCOCCOCC(=O)NCCCC[C@H](NC(=O)CCCCCCCCCCCCCCCCCCC(=O)O)C(=O)O)CCNC(=O)CSC[C@@H](C(=O)N[C@@H](CC(=O)O)C(=O)N[C@@H](Cc2ccc(O)cc2)C(=O)N2CCC[C@H]2C(=O)N[C@@H](CCCNC(=N)N)C(=O)N[C@H](C(=O)N[C@@H](CC(=O)O)C(=O)N[C@H](C(=O)NCC(=O)N[C@@H](C)C(=O)NCC(=O)N[C@@H](CO)C(=O)N2CCC[C@H]2C(N)=O)C(C)C)[C@@H](C)O)NC(=O)[C@H](CC(C)C)NC(=O)[C@H](CCCCN)NC(=O)[C@H](Cc2c[nH]cn2)NC(=O)[C@H](CC(C)C)NC(=O)[C@H](CCC(=O)O)NC(=O)[C@H](C)NC1=O)C(C)C)[C@@H](C)O [AMY-008] (Ac-ASHLSTAVLGRLCAELHKLCDYPRTDVGAGSP-NH2; linker 13-20 via X1)	0.0713	0.0502
CC[C@H](C)[C@H](NC(=O)[C@@H]1CCCN1C(=O)CNC(=O)[C@H](Cc1ccccc1)NC(=O)[C@H](CC(N)=O)NC(=O)[C@H](CC(N)=O)NC(=O)[C@H](CO)NC(=O)[C@H](CO)NC(=O)[C@H](Cc1c[nH]cn1)NC(=O)[C@H](CCCNC(=N)N)NC(=O)[C@H](CC(C)C)NC(=O)[C@H](Cc1ccccc1)NC(=O)[C@H](CCC(=O)O)NC(=O)[C@H](C)NC(=O)[C@H](CC(C)C)NC(=O)[C@H](CCCNC(=N)N)NC(=O)[C@H](CCC(N)=O)NC(=O)[C@@H](NC(=O)[C@H](C)NC(=O)[C@@H]1CSSC[C@H](NC(=O)[C@H](CCCCN)NC(=O)CC[C@H](NC(=O)CCCCCCCCCCCCCCCCCCC(=O)O)C(=O)O)C(=O)N[C@@H](CC(N)=O)C(=O)N[C@@H]([C@@H](C)O)C(=O)N[C@@H](C)C(=O)N[C@@H]([C@@H](C)O)C(=O)N1)[C@@H](C)O)C(=O)N[C@@H](CC(C)C)C(=O)N1CCC[C@H]1C(=O)N1CCC[C@H]1C(=O)N[C@H](C(=O)N[C@@H](CC(N)=O)C(=O)N[C@H](C(=O)NCC(=O)N[C@@H](CO)C(=O)N[C@@H](CC(N)=O)C(=O)N[C@H](C(=O)N1CCC[C@H]1C(N)=O)[C@@H](C)O)C(C)C)[C@@H](C)O [Cagrilintide, reference compound]	0.0123	–
